Assay results: ChEMBL document CHEMBL5620403, “Design, synthesis, activity and molecular dynamics studies of 1,3,4-thiadiazole derivatives as selective allosteric inhibitors of SHP2 for the treatment of cancer” (Eur J Med Chem, 2023)
Active and inactive are the calls of the source. No cut-off for these calls is given here.

Assays:
MV4-11 [1] = assay: Induction of apoptosis in human MV4-11 cells assessed as necrotic cells at 5 uM measured after 4 hrs by Annexin V-FITC/7-AAD staining based flow cytometric analysis (reference value: 0.041%); type: functional
MV4-11 [2] = assay: Induction of apoptosis in human MV4-11 cells assessed as late apoptotic cells at 2.5 uM measured after 4 hrs by Annexin V-FITC/7-AAD staining based flow cytometric analysis (reference value: 1.58%); type: functional
MV4-11 [3] = assay: Induction of apoptosis in human MV4-11 cells assessed as late apoptotic cells at 1.25 uM measured after 4 hrs by Annexin V-FITC/7-AAD staining based flow cytometric analysis (reference value: 1.58%); type: functional
[4] = biological target: Tyrosine-protein phosphatase non-receptor type 6 (Homo sapiens, UniProt P29350); assay: Inhibition of full length recombinant human SHP1 (1 to 570 residues) using DIPMUP as substrate preincubated for 30 mins followed by substrate addition and measured after 30 mins by fluorescence based analysis
MV4-11 [5] = assay: Induction of apoptosis in human MV4-11 cells assessed as necrotic cells at 5 uM measured after 4 hrs by Annexin V-FITC/7-AAD staining based flow cytometric analysis (reference value: 0.068%); type: functional
[6] = biological target: T1, Tyrosine-protein phosphatase non-receptor type 11 (Homo sapiens) (UniProt Q06124); assay: Inhibition of SHP2 in human MV4-11 cells assessed as reduction in Erk1/2 phosphorylation level at upto 20 uM measured after 4 hrs by Western blot analysis; type: cell-based
T1 sequence (whole entry): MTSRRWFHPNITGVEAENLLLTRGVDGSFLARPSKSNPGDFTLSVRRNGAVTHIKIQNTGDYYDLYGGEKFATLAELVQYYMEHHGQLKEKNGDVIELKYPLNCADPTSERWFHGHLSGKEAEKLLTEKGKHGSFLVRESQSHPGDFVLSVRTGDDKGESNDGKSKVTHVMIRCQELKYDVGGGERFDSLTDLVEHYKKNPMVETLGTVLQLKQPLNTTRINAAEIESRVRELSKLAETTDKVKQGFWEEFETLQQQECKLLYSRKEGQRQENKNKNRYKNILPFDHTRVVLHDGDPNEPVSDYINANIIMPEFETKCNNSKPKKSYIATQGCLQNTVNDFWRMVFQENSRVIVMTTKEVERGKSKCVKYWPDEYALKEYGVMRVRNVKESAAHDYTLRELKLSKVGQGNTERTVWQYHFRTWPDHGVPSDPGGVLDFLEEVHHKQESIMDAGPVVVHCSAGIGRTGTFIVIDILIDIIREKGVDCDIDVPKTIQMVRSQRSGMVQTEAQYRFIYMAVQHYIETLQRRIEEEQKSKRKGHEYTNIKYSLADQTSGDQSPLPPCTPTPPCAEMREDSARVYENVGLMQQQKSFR

MV4-11 [7] = assay: Induction of apoptosis in human MV4-11 cells assessed as early apoptotic cells at 5 uM measured after 4 hrs by Annexin V-FITC/7-AAD staining based flow cytometric analysis (reference value: 2.13%); type: functional
MV4-11 [8] = assay: Induction of apoptosis in human MV4-11 cells assessed as viable cells at 5 uM measured after 4 hrs by Annexin V-FITC/7-AAD staining based flow cytometric analysis (reference value: 95.9%); type: functional; conditions: read-out: Activity
[9] = biological target: T1, Tyrosine-protein phosphatase non-receptor type 11 (Homo sapiens); assay: Inhibition of SHP2 in human NCI-H358 cells assessed as reduction in Erk1/2 phosphorylation level at upto 20 uM measured after 8 hrs by Western blot analysis; type: cell-based
MV4-11 [10] = assay: Induction of apoptosis in human MV4-11 cells assessed as necrotic cells at 2.5 uM measured after 4 hrs by Annexin V-FITC/7-AAD staining based flow cytometric analysis (reference value: 0.041%); type: functional
[11] = biological target: Tyrosine-protein phosphatase non-receptor type 11 (Homo sapiens, UniProt Q06124, E76K); assay: Inhibition of full length recombinant human SHP2 E76K mutant (1 to 525 residues) using DIPMUP as substrate preincubated for 30 mins followed by substrate addition and measured after 30 mins by fluorescence based analysis
MV4-11 [12] = assay: Induction of apoptosis in human MV4-11 cells assessed as early apoptotic cells at 5 uM measured after 1 hrs by Annexin V-FITC/7-AAD staining based flow cytometric analysis (reference value: 2.13%); type: functional
MV4-11 [13] = assay: Induction of apoptosis in human MV4-11 cells assessed as late apoptotic cells at 5 uM measured after 4 hrs by Annexin V-FITC/7-AAD staining based flow cytometric analysis (reference value: 0.98%); type: functional
MV4-11 [14] = assay: Induction of apoptosis in human MV4-11 cells assessed as early apoptotic cells at 5 uM measured after 2 hrs by Annexin V-FITC/7-AAD staining based flow cytometric analysis (reference value: 2.13%); type: functional
MV4-11 [15] = assay: Induction of apoptosis in human MV4-11 cells assessed as late apoptotic cells at 5 uM measured after 4 hrs by Annexin V-FITC/7-AAD staining based flow cytometric analysis (reference value: 1.58%); type: functional
MV4-11 [16] = assay: Induction of apoptosis in human MV4-11 cells assessed as viable cells at 2.5 uM measured after 4 hrs by Annexin V-FITC/7-AAD staining based flow cytometric analysis (reference value: 95.9%); type: functional; conditions: read-out: Activity
MV4-11 [17] = assay: Induction of apoptosis in human MV4-11 cells assessed as viable cells at 5 uM measured after 1 hrs by Annexin V-FITC/7-AAD staining based flow cytometric analysis (reference value: 96.8%); type: functional; conditions: read-out: Activity
MV4-11 [18] = assay: Induction of apoptosis in human MV4-11 cells assessed as viable cells at 5 uM measured after 4 hrs by Annexin V-FITC/7-AAD staining based flow cytometric analysis (reference value: 96.8%); type: functional; conditions: read-out: Activity
MV4-11 [19] = assay: Induction of apoptosis in human MV4-11 cells assessed as early apoptotic cells at 1.25 uM measured after 4 hrs by Annexin V-FITC/7-AAD staining based flow cytometric analysis (reference value: 2.48%); type: functional
A549 = assay: Antiproliferative activity against human A549 cells assessed as inhibition of cell growth measured after 72 hrs by CCK8 method; type: functional, cell-based; conditions: A549, 72 h
[20] = biological target: T1, Tyrosine-protein phosphatase non-receptor type 11 (Homo sapiens); assay: Inhibition of SHP2 in human MV4-11 cells assessed as reduction in Akt phosphorylation level at upto 20 uM measured after 4 hrs by Western blot analysis; type: cell-based
MV4-11 [21] = assay: Induction of apoptosis in human MV4-11 cells assessed as early apoptotic cells at 5 uM measured after 4 hrs by Annexin V-FITC/7-AAD staining based flow cytometric analysis (reference value: 2.48%); type: functional
MV4-11 [22] = assay: Induction of apoptosis in human MV4-11 cells assessed as necrotic cells at 5 uM measured after 1 hrs by Annexin V-FITC/7-AAD staining based flow cytometric analysis (reference value: 0.068%); type: functional
MV4-11 [23] = assay: Induction of apoptosis in human MV4-11 cells assessed as viable cells at 1.25 uM measured after 4 hrs by Annexin V-FITC/7-AAD staining based flow cytometric analysis (reference value: 95.9%); type: functional; conditions: read-out: Activity
MV4-11 [24] = assay: Antiproliferative activity against human MV4-11 cells assessed as inhibition of cell growth measured after 72 hrs by CCK8 method; type: functional, cell-based; conditions: MV4-11, 72 h
[25] = Inhibition of full length recombinant human SHP2 E76A mutant (1 to 525 residues) using DIPMUP as substrate preincubated for 30 mins followed by substrate addition and measured after 30 mins by fluorescence based analysis

Tyrosine-protein phosphatase non-receptor type 6, sequence (P29350 whole entry, the tested form may be a part): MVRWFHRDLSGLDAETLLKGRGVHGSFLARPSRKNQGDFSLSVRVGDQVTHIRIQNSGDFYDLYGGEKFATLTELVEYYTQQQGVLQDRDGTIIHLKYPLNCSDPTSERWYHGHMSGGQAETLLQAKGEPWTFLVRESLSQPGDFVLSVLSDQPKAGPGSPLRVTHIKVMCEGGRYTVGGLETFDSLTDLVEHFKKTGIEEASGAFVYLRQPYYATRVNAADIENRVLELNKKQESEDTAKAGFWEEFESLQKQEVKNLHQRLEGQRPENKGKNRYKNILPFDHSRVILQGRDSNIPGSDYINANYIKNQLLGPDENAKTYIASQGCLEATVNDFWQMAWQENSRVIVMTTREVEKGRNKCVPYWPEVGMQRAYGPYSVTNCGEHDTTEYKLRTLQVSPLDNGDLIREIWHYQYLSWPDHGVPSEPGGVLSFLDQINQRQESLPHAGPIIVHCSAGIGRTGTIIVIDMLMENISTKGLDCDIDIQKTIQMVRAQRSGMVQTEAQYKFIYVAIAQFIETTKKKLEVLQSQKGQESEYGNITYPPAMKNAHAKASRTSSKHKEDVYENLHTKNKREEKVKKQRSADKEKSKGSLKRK
Tyrosine-protein phosphatase non-receptor type 11, sequence (Q06124 2-593 E76K limits assumed): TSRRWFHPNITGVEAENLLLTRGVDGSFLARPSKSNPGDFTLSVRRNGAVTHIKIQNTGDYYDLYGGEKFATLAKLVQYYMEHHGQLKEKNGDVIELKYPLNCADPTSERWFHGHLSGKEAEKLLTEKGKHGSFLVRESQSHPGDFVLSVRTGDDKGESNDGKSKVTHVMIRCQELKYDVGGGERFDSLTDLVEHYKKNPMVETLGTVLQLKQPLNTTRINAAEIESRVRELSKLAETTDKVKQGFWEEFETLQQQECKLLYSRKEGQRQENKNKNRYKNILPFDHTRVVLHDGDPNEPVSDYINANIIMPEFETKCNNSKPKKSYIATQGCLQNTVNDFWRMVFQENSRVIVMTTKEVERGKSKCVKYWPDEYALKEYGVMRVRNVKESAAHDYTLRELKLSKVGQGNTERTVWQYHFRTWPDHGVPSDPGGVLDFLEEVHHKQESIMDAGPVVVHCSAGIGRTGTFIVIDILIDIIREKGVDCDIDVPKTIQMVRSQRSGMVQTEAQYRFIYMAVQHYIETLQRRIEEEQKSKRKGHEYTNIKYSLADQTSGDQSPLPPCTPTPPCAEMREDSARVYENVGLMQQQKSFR

## C[C@@H]1OCC2(CCN(c3nnc(Sc4cccc(Cl)c4Cl)s3)CC2)[C@@H]1N
MV4-11 [1]
  Activity: 1.55%
MV4-11 [2]
  Activity: 2.3%
MV4-11 [3]
  Activity: 1.93%
[4]
  IC50: > 50 µM
MV4-11 [5]
  Activity: 1.38%
[6]
  inhibition: Active
MV4-11 [7]
  Activity: 10.8%
MV4-11 [8]
  viability at 5 µM: 84.1%
[9]
  inhibition: Active
MV4-11 [10]
  Activity: 0.076%
[11]
  IC50: 6.88 µM
MV4-11 [12]
  Activity: 4.74%
MV4-11 [13]
  Activity: 7.78%
MV4-11 [14]
  Activity: 10.9%
MV4-11 [15]
  Activity: 5.98%
MV4-11 [16]
  viability at 2.5 µM: 96.7%
MV4-11 [17]
  viability at 5 µM: 90%
MV4-11 [18]
  viability at 5 µM: 80%
MV4-11 [19]
  Activity: 2.04%
A549
  IC50: 12.1 µM
[20]
  inhibition: Active
MV4-11 [21]
  Activity: 8.42%
MV4-11 [22]
  Activity: 0.91%
MV4-11 [23]
  viability at 1.25 µM: 95.9%
MV4-11 [24]
  IC50: 3.85 µM
[25]
  IC50: 1380 nM
